In patent US12673975B2, “Cyclic peptide, cell scaffold material, cell separating material, and medium” (FUJIFILM Corporation, priority 2019, dated 2026):
Read-outs that look alike come from different tables or passages of the source. Starred links: 1 amine or outer side, 2 acyl side, 3 side chain; linkers in the order of their positions; H or OH if unused. Positions of bridges follow the written chain, without caps; N, C: chain ends. Non-standard residues stand in square brackets, D forms with d. Residues, ends and D or L forms follow the SMILES beside them. Pen = CC(C)(S)[C@H](N)C(=O)O; hCys = N[C@@H](CCS)C(=O)O; Dab = NCC[C@H](N)C(=O)O; Dap = NC[C@H](N)C(=O)O; X1 = O=C(C[*:2])[*:1]; X2 = O=C(C[*:1])[*:2]

What was measured:
human integrin αvβ5 = human integrin αvβ5 (Homo sapiens, UniProt P06756+P18084); experiment: Evaluation of integrin binding property (surface plasmon resonance, Biacore 3000, immobilized cyclic peptide)
human integrin αvβ5, sequence (P06756 31-1048): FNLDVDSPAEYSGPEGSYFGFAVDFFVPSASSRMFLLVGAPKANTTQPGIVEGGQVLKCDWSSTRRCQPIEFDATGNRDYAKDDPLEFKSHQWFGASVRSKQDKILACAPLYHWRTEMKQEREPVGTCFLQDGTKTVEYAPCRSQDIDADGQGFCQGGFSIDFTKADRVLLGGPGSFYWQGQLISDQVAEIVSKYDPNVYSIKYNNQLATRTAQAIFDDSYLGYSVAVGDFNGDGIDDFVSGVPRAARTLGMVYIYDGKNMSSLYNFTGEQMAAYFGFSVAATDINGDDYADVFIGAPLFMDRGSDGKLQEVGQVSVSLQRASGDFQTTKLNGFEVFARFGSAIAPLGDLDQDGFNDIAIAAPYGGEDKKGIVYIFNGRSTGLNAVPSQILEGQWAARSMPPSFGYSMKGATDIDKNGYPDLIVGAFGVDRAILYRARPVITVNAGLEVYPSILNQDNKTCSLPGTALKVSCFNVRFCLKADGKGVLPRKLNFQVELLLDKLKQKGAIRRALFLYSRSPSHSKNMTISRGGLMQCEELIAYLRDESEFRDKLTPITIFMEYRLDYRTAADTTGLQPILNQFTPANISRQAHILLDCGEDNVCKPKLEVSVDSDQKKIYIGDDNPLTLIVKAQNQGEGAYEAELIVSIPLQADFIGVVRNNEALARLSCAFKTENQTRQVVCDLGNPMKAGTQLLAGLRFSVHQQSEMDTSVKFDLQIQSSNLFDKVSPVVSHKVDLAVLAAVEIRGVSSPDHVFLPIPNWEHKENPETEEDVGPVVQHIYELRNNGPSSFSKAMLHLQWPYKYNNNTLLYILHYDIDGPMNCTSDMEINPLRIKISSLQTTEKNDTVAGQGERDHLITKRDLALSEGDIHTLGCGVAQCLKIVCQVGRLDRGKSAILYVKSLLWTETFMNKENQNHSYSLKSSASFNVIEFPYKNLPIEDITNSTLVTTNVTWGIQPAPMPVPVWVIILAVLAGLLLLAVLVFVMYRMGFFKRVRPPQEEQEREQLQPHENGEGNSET
human integrin αvβ5, sequence (P18084 24-799): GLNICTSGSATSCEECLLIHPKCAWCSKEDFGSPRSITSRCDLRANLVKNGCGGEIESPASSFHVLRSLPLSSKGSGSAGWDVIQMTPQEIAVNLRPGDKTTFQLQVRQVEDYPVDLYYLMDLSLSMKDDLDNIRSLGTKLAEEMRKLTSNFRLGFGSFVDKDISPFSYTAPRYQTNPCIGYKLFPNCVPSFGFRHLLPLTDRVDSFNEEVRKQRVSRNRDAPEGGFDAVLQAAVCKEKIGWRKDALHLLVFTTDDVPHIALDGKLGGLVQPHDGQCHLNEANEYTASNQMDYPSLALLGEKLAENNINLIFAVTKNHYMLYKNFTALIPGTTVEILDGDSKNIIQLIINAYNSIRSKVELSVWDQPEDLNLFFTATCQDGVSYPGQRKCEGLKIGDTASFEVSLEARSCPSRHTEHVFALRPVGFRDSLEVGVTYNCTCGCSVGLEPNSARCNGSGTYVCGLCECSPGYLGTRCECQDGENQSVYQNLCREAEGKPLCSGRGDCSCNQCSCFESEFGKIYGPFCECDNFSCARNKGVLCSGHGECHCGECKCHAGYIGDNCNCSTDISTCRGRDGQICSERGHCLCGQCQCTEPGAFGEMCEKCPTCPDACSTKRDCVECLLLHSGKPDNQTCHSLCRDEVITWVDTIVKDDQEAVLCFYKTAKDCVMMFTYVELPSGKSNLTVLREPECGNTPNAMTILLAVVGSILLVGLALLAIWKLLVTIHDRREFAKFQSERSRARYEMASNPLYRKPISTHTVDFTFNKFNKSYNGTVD
Method in brief: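 Human αvβ5 (30-1,000 nM) flowed for 10 min at 25 °C over immobilized cyclic peptide in 20 mM HEPES, 150 mM NaCl, 5 mM MgCl2, pH 7.4, followed by 30 min running buffer and 0.5 M EDTA regeneration. Dissociation constant from peptide minus unimmobilized channel, scored into standard grades.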

[1] = Evaluation of molecule stability (alkali treatment, residual rate by LC/MS); type: physicochemical; conditions: for Stability (molecule stability, residual rate of the cyclic peptide rank): alkali treatment, residual rate by LC/MS; for Performance evaluation: Stability (residual rate of cyclic peptide after alkali treatment): 500 μM peptide aqueous solution plus equivalent of 1 M sodium hydroxide, 15° C., 3 hours, LC/MS peak area
Method in brief: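 Stability read as percent of summed LC/MS peak area remaining versus untreated peptide (C18, 45 °C, 10 mM ammonium formate pH 3, ESI positive/negative). Treatment: 500 μM peptide in water plus an equivalent of 1 M NaOH, 15 °C for 3 hours.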

[2] = surface plasmon resonance, immobilized cyclic peptide, human integrin αvβ5, read-out: Binding activity (integrin binding property, dissociation constant rank)
[3] = SPR, 25° C., HEPES buffer with 5 mM magnesium chloride, integrin 30-1,000 nM, read-out: Performance evaluation: Binding activity (dissociation constant between the cyclic peptide and human integrin αvβ5)

Row | Kd (human integrin αvβ5; [2]) [nM] | Kd (human integrin αvβ5; [3]) [nM] | Structure (SMILES) | Stability (molecule stability, residual rate of the cyclic peptide rank) [1] | Performance evaluation: Stability (residual rate of cyclic peptide after alkali treatment) [1] | molecule stability (in words) ([1]; summary of Table 9 to Table 13)
1 | < 50 | – | CC(C)[C@@H]1NC(=O)[C@@H](NC(=O)[C@H](C)NC(=O)[C@H](CCCCN)NC(=O)[C@H](CCCCN)NC(=O)[C@@H](N)CCCCN)CCSCC(=O)NCC[C@@H](C(=O)NCC(=O)O)NC(=O)[C@H](C)NC(=O)[C@H](Cc2ccccc2)NC(=O)[C@H]([C@@H](C)O)NC(=O)[C@H](CC(=O)O)NC(=O)CNC(=O)[C@H](CCCNC(=N)N)NC(=O)[C@@H]2CCCN2C1=O [Cyclic peptide 107, KKKA-(Hcy)-VPRGDTFA(Dab(acetyl))G] (H-KKKA[hCys]VPRGDTFA[Dab]G-OH; linker 5-14 via X2) | A (The residual rate of the cyclic peptide is 70% or more.) | – | –
2 | 50 to 100 | – | CC[C@H](C)[C@@H]1NC(=O)[C@@H](NC(=O)CNC(=O)[C@H](CCCCN)NC(=O)[C@H](CCCCN)NC(=O)[C@@H](N)CCCCN)C(C)(C)SCC(=O)NCC[C@@H](C(=O)N[C@@H](C)C(=O)O)NC(=O)[C@H](CCCNC(=N)N)NC(=O)[C@H](Cc2ccccc2)NC(=O)[C@H]([C@@H](C)O)NC(=O)[C@H](CC(=O)O)NC(=O)CNC(=O)[C@H](CCCNC(=N)N)NC(=O)[C@@H]2CCCN2C1=O [Cyclic peptide 129, KKKG-(Pen)-IPRGDTFR(Dab(acetyl))A] (H-KKKG[Pen]IPRGDTFR[Dab]A-OH; linker 5-14 via X2) | A (The residual rate of the cyclic peptide is 70% or more.) | – | –
3 | – | < 50 | CC[C@H](C)[C@@H]1NC(=O)[C@@H](NC(=O)[C@H](CCCCN)NC(=O)[C@H](CCCCN)NC(=O)[C@@H](N)CCCCN)CCSCC(=O)NCC[C@@H](C(=O)N[C@@H](C)C(=O)O)NC(=O)[C@H](Cc2ccccc2)NC(=O)[C@H]([C@@H](C)O)NC(=O)[C@H](CC(=O)O)NC(=O)CNC(=O)[C@H](CCCNC(=N)N)NC(=O)[C@@H]2CCCN2C1=O [Cyclic peptide 60, KKK-(Hcy)-IPRGDTF(Dab(acetyl))A] (H-KKK[hCys]IPRGDTF[Dab]A-OH; linker 4-12 via X2) | – | A (The residual rate of the cyclic peptide is 70% or more.) | –
4 | < 50 | – | CC[C@H](C)[C@@H]1NC(=O)[C@@H](NC(=O)CNC(=O)[C@H](CCCCN)NC(=O)[C@H](CCCCN)NC(=O)[C@@H](N)CCCCN)CCNC(=O)CSCC[C@@H](C(=O)N[C@@H](C)C(=O)O)NC(=O)[C@H](CCCNC(=N)N)NC(=O)[C@H](Cc2ccccc2)NC(=O)[C@H]([C@@H](C)O)NC(=O)[C@H](CC(=O)O)NC(=O)CNC(=O)[C@H](CCCNC(=N)N)NC(=O)[C@@H]2CCCN2C1=O [Cyclic peptide 118, KKKG(Dab(acetyl))IPRGDTFR-(Hcy)-A] (H-KKKG[Dab]IPRGDTFR[hCys]A-OH; linker 5-14 via X1) | A (The residual rate of the cyclic peptide is 70% or more.) | – | –
5 | < 50 | – | CC(C)[C@@H]1NC(=O)[C@@H](NC(=O)CNC(=O)[C@H](CCCCN)NC(=O)[C@H](CCCCN)NC(=O)[C@@H](N)CCCCN)CCSCC(=O)NCC[C@@H](C(=O)N[C@@H](C)C(=O)O)NC(=O)[C@H](C)NC(=O)[C@H](Cc2ccccc2)NC(=O)[C@H]([C@@H](C)O)NC(=O)[C@H](CC(=O)O)NC(=O)CNC(=O)[C@H](CCCNC(=N)N)NC(=O)[C@@H]2CCCN2C1=O [Cyclic peptide 106, KKKG-(Hcy)-VPRGDTFA(Dab(acetyl))A] (H-KKKG[hCys]VPRGDTFA[Dab]A-OH; linker 5-14 via X2) | A (The residual rate of the cyclic peptide is 70% or more.) | – | –
6 | – | 50 to 100 | C[C@H](NC(=O)[C@@H]1CCNC(=O)CSCC[C@H](NC(=O)CNC(=O)[C@H](CCCCN)NC(=O)[C@H](CCCCN)NC(=O)[C@@H](N)CCCCN)C(=O)N2CCC[C@H]2C(=O)N[C@@H](CCCNC(=N)N)C(=O)NCC(=O)N[C@@H](CC(=O)O)C(=O)N[C@@H](CC(N)=O)C(=O)N[C@@H](Cc2ccccc2)C(=O)N[C@@H](CCCNC(=N)N)C(=O)N1)C(=O)O [Cyclic peptide 8, KKKG-(Hcy)-PRGDNFR(Dab(acetyl))A] (H-KKKG[hCys]PRGDNFR[Dab]A-OH; linker 5-13 via X2) | – | A (The residual rate of the cyclic peptide is 70% or more.) | –
7 | 50 to 100 | – | N=C(N)NCCC[C@@H]1NC(=O)[C@H](Cc2ccc(O)cc2)NC(=O)[C@H](CC(N)=O)NC(=O)[C@H](CC(=O)O)NC(=O)CNC(=O)[C@H](CCCNC(=N)N)NC(=O)[C@@H]2CCCN2C(=O)[C@H](CCC(=O)O)NC(=O)[C@@H](NC(=O)[C@H](CCCCN)NC(=O)[C@H](CCCCN)NC(=O)[C@@H](N)CCCCN)CNC(=O)CSC[C@@H](C(=O)O)NC1=O [Cyclic peptide 167, KKK(Dap(acetyl))EPRGDNYR(C), reference compound] (H-KKK[Dap]EPRGDNYRC-OH; linker 4-13 via X1) | D (The residual rate of the cyclic peptide is less than 30%.) | – | a practically sufficient molecule stability could be obtained
8 | 50 to 100 | – | CC(C)[C@@H]1NC(=O)[C@H](CC(=O)O)NC(=O)CNC(=O)[C@H](CCCNC(=N)N)NC(=O)[C@H]([C@@H](C)O)NC(=O)[C@H](C(C)C)NC(=O)[C@@H](NC(=O)[C@H](C)NC(=O)[C@H](CCCCN)NC(=O)[C@H](CCCCN)NC(=O)[C@@H](N)CCCCN)CCSCC(=O)NCC[C@@H](C(=O)N[C@@H](C)C(=O)O)NC(=O)[C@H]([C@@H](C)O)NC(=O)[C@H](Cc2ccccc2)NC1=O [Cyclic peptide 113, KKKA-(Hcy)-VTRGDVFT(Dab(acetyl))A] (H-KKKA[hCys]VTRGDVFT[Dab]A-OH; linker 5-14 via X2) | A (The residual rate of the cyclic peptide is 70% or more.) | – | –
